Results on three compounds are retold here after ChEMBL document CHEMBL5696442, “Discovery of type II inhibitors of TGFβ-activated kinase 1 (TAK1) and mitogen-activated protein kinase kinase kinase kinase 2 (MAP4K2)” (J Med Chem, 2015).

The structures appear in SMILES notation. The source made the active and inactive calls. The calls are words filed in the database; no cut-off is given here.

The target in experiment [1] is Ribosomal protein S6 kinase alpha-1 (Homo sapiens) (UniProt Q15418). Description: Inhibition of RSK1 domain1 ACT labeling site in human A-375 cells at 5 uM by KiNativ Profiling analysis relative to control. It counts as cell-based.
Sequence of Ribosomal protein S6 kinase alpha-1 (Homo sapiens) (Q15418 whole entry, the tested form may be a part): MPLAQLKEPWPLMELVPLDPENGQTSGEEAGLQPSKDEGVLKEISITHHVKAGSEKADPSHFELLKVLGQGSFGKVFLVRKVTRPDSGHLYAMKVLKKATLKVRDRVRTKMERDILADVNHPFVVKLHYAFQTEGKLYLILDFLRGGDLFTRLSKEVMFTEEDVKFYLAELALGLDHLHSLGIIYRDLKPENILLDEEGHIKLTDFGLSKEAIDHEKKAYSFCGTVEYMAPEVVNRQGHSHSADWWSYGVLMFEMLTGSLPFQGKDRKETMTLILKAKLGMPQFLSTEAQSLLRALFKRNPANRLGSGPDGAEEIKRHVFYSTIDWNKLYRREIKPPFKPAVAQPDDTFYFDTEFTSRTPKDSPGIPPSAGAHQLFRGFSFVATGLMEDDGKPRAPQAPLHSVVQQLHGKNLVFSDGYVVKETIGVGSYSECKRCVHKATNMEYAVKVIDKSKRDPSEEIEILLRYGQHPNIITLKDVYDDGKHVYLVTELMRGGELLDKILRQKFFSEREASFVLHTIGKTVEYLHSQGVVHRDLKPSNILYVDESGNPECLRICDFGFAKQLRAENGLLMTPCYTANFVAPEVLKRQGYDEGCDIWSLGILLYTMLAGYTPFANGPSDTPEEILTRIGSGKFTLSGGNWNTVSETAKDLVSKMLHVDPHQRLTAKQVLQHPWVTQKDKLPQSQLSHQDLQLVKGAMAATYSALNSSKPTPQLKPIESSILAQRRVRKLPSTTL
For experiment [2], the target named is Serine/threonine-protein kinase 16 (Homo sapiens) (UniProt O75716). The experiment in a line: Inhibition of MPSK1 Lys2 labeling site in human A-375 cells at 0.05 uM by KiNativ Profiling analysis relative to control. The experiment is classed as cell-based.
Experiment [3] addresses Serine/threonine-protein kinase SIK3 (Homo sapiens) (UniProt Q9Y2K2). Description: Inhibition of QSK Lys2 labeling site in human A-375 cells at 0.05 uM by KiNativ Profiling analysis relative to control. It counts as cell-based.
Experiment [4] addresses Mitogen-activated protein kinase 11 (Homo sapiens) (UniProt Q15759). The experiment in a line: Inhibition of p38 beta (unknown origin) at 1 uM by Ambit Kinomescan binding assay relative to control; values are per cent of control.
Experiment [5] addresses T1, Inhibitor of nuclear factor kappa-B kinase subunit epsilon (Homo sapiens) (UniProt Q14164).
T1 sequence (whole entry): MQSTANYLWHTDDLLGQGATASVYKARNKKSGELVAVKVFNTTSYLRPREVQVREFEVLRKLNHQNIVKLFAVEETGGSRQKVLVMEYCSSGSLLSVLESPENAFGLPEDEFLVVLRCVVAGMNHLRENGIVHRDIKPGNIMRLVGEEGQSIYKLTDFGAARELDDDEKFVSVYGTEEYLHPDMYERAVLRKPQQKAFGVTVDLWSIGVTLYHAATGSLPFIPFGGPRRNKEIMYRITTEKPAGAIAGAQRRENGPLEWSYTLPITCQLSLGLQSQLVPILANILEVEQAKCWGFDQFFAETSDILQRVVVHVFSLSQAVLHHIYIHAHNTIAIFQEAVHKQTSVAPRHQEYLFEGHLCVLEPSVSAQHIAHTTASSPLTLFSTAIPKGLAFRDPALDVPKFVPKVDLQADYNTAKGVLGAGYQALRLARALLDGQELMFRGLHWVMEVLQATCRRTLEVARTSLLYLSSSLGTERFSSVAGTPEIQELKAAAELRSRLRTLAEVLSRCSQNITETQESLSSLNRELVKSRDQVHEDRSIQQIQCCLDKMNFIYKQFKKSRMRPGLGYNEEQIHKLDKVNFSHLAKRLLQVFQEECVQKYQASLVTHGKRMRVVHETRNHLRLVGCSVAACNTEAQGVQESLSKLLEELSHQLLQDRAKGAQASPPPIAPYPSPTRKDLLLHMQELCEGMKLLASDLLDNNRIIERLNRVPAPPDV
The experiment in a line: Inhibition of IKK-epsilon (unknown origin) at 1 uM by Ambit Kinomescan binding assay relative to control; values are per cent of control.

The subject of experiment [6] is Epidermal growth factor receptor (Homo sapiens), P00533 [UNDEFINED MUTATION]. The experiment in a line: Inhibition of EGFR L747-T751del mutant (unknown origin) at 10 uM by Ambit Kinomescan binding assay relative to control.
In experiment [7] the target is Serine/threonine-protein kinase PLK1 (Homo sapiens) (UniProt P53350). The experiment in a line: Inhibition of PLK1 (unknown origin) at 10 uM by Ambit Kinomescan binding assay.
In experiment [8] the target is T2, Serine/threonine-protein kinase LATS2 (Homo sapiens) (UniProt Q9NRM7).
T2 sequence (whole entry): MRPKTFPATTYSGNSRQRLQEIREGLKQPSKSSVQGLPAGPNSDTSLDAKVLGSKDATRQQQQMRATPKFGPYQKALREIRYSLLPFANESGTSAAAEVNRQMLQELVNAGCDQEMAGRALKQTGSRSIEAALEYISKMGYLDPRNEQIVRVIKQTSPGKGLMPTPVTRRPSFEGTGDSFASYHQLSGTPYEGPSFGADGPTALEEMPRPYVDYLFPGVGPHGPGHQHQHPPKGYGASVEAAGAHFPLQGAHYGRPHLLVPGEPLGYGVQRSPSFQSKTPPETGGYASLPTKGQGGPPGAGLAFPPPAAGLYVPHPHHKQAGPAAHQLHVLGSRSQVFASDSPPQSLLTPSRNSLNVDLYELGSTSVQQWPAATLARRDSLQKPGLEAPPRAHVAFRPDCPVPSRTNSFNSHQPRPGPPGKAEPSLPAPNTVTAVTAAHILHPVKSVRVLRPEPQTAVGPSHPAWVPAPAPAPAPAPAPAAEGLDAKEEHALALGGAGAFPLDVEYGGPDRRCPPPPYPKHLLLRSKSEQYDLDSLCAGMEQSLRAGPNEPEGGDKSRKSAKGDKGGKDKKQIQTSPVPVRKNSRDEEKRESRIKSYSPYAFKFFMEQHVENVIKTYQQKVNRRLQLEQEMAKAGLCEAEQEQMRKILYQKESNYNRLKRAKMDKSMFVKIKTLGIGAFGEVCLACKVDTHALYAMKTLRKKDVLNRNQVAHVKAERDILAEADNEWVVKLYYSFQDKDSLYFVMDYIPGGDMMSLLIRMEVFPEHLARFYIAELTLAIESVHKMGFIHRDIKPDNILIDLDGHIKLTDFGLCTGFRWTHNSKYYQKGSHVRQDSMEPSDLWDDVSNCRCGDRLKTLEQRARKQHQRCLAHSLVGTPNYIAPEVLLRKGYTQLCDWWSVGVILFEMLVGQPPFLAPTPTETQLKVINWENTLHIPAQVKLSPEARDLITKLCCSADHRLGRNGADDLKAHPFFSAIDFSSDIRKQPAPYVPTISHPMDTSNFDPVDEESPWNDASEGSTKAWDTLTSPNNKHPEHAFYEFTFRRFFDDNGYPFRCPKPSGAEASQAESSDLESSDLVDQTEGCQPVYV
The experiment in a line: Inhibition of LATS2 Lys2 labeling site in human A-375 cells at 5 uM by KiNativ Profiling analysis relative to control. The experiment is classed as cell-based.

For experiment [9], the target named is Ribosomal protein S6 kinase alpha-3 (Homo sapiens) (UniProt P51812). Description: Inhibition of RSK2 Domain 2 K2 labeling site harbouring DLKPSNILYVDESGNPESIR in human Huh-7 cells at 1 uM by KiNativ Profiling analysis relative to control. It counts as cell-based.
Sequence of Ribosomal protein S6 kinase alpha-3 (Homo sapiens) (P51812 whole entry, the tested form may be a part): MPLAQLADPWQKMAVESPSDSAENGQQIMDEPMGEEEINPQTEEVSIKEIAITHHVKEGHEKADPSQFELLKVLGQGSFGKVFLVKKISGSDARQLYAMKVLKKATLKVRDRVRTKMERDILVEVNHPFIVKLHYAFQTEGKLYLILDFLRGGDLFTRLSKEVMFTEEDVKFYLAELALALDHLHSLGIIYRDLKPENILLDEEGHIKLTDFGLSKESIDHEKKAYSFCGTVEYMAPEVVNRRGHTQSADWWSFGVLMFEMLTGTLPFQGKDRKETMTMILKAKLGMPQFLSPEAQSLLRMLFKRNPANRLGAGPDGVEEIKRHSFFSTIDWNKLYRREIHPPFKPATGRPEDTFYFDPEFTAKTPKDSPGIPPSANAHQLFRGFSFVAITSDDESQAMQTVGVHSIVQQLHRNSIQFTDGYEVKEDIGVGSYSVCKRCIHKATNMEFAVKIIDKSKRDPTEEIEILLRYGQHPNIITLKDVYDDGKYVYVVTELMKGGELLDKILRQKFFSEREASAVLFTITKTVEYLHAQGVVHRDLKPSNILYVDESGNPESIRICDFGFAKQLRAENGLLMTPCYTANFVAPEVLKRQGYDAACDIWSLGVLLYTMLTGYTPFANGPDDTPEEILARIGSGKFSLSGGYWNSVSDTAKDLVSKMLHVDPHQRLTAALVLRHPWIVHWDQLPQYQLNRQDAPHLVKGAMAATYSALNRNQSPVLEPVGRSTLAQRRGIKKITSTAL
The target is the same in experiment [10]. The experiment in a line: Inhibition of RSK2 Domain 2 K1 labeling site in human Huh-7 cells at 1 uM by KiNativ Profiling analysis relative to control. It counts as cell-based.
Experiment [11] deals with Microtubule-associated serine/threonine-protein kinase 1 (Homo sapiens) (UniProt Q9Y2H9). Description: Inhibition of MAST1 Lys2 labeling site in human A-375 cells at 0.5 uM by KiNativ Profiling analysis relative to control.
The target of experiment [12] is Cyclin-dependent kinase 2 (Homo sapiens) (UniProt P24941). Description: Inhibition of CDK2 Lys2 labeling site harbouring VLHRDLKPQNLLINTEGAIK in human Huh-7 cell lysate at 1 uM by KiNativ Profiling analysis relative to control. It counts as subcellular.
For experiment [13], the target named is Serine/threonine-protein kinase 4 (Homo sapiens) (UniProt Q13043). The experiment in a line: Inhibition of MST1 Lys1 labeling site harbouring ETGQIVAIKQVPVESDLQEIIK in human Huh-7 cell lysate at 1 uM by KiNativ Profiling analysis relative to control.
Sequence of Serine/threonine-protein kinase 4 (Homo sapiens) (Q13043 whole entry, looked up): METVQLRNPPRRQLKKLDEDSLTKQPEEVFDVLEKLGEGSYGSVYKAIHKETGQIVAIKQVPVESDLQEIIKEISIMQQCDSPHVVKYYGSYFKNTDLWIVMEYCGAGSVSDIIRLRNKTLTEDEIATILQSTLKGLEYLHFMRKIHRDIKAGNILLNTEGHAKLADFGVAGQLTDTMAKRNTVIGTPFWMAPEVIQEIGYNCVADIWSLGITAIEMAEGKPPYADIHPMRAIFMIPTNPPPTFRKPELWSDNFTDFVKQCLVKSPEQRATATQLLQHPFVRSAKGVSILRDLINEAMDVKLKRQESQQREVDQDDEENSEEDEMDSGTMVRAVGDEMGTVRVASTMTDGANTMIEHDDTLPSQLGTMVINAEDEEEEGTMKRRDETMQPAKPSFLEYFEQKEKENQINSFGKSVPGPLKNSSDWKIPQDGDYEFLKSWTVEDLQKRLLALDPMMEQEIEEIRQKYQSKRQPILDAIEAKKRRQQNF

Sequence of Mitogen-activated protein kinase 11 (Homo sapiens) (Q15759 whole entry): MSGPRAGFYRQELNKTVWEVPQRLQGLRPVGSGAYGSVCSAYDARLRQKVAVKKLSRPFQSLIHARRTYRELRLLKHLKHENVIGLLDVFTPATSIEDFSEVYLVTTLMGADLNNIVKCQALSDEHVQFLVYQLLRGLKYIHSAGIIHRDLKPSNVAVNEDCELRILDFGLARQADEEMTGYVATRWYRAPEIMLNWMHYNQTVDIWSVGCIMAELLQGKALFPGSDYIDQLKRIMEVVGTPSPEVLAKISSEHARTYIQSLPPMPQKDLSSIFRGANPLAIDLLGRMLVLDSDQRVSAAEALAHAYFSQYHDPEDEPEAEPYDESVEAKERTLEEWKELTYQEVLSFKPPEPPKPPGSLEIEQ
Sequence of Epidermal growth factor receptor (Homo sapiens), P00533 [UNDEFINED MUTATION] (P00533 whole entry, looked up, stated change not applied): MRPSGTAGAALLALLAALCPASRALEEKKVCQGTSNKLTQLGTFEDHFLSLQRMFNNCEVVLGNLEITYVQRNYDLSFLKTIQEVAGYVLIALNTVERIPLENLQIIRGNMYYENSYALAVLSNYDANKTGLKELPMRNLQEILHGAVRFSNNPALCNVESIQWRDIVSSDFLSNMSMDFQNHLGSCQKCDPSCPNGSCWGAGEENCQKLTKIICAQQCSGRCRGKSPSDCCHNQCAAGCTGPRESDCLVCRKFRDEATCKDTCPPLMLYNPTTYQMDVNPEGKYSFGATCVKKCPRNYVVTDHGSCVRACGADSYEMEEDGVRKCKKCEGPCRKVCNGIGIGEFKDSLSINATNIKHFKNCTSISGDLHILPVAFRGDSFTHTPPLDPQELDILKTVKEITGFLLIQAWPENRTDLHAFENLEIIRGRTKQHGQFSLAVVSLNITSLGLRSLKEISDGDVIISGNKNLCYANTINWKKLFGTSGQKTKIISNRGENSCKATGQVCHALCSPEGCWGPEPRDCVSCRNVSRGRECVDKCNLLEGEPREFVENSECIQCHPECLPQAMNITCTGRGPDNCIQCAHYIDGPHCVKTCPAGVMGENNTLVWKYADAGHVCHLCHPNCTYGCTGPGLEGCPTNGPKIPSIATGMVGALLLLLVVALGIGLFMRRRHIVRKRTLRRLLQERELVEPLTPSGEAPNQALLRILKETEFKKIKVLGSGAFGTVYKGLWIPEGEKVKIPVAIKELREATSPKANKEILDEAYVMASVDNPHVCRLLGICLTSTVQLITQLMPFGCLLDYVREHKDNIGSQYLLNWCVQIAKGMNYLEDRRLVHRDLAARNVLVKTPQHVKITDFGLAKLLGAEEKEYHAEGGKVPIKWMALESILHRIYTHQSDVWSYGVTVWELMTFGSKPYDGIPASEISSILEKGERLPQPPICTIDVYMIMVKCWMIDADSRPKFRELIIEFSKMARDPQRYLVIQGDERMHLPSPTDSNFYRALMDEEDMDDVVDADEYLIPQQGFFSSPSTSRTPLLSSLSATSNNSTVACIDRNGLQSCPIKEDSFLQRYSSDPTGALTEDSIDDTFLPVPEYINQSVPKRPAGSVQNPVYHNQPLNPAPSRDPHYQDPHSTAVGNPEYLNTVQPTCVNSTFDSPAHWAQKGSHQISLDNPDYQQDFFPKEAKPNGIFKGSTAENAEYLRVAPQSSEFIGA
Sequence of Serine/threonine-protein kinase SIK3 (Homo sapiens) (Q9Y2K2 whole entry, looked up): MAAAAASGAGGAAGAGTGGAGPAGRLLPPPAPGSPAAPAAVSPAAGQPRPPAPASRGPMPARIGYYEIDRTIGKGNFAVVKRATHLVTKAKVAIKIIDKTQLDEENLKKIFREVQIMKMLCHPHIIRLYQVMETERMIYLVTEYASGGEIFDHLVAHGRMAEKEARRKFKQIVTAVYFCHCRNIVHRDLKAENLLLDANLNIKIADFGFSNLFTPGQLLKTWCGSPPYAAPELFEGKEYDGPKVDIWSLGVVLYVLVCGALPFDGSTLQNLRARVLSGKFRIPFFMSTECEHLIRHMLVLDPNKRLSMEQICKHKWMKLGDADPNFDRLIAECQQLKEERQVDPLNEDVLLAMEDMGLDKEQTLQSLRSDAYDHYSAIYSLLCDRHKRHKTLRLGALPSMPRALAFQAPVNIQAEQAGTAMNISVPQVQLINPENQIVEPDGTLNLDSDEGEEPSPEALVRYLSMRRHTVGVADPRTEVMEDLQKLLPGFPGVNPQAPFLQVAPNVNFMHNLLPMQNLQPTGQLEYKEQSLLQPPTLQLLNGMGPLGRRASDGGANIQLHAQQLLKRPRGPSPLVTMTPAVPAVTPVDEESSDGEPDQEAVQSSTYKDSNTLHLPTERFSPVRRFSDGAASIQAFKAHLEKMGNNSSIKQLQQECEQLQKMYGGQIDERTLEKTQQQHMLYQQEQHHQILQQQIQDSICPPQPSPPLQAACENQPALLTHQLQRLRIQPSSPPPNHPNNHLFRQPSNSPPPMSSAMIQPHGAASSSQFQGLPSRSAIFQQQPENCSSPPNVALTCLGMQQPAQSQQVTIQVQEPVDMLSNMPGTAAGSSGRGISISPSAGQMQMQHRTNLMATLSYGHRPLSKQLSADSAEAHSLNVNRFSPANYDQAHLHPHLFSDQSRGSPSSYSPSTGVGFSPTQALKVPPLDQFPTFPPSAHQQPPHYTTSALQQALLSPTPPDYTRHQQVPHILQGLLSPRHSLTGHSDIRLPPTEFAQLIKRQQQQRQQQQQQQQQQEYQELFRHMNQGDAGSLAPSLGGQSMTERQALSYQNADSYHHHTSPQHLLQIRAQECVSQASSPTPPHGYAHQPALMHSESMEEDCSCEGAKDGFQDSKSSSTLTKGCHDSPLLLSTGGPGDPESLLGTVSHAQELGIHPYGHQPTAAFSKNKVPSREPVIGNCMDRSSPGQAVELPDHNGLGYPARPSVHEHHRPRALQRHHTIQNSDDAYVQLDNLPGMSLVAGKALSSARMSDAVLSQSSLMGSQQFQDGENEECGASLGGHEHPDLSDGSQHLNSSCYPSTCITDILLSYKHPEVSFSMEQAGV

For `CCN1CCN(Cc2ccc(NC(=O)c3ccc(C)c(/C=C/c4cnc5[nH]ccc5c4OC)c3)cc2C(F)(F)F)CC1`, the values for the inhibition in experiment [1], in experiment [2] and in [3] were 14.7%, 14.1% and 29.6%, respectively. The same compound gave a percent of control in experiment [4] of 0.3%. The residual activity (as a rule, the signal under treatment as a percentage of the control signal) in experiment [5] stood at 100%.
Regarding `CCN1CCN(Cc2ccc(NC(=O)c3ccc(C)c(Oc4ccnc5[nH]ccc45)c3)cc2C(F)(F)F)CC1`, the inhibition – broadly, the change of the read-out against control, counted positive when it falls – in experiment [6] was determined as 1.1%; in experiment [8], 5.5%; in experiment [9], 11.5%; in [11], 16.1%. Also, the inhibition result in experiment [7] and in [10] was “inactive” each time.
Turning to `CNc1cc(Oc2cc(C(=O)Nc3cc(N4CCN(C)CC4)cc(C(F)(F)F)c3)ccc2C)ncn1`, the inhibition in experiment [12] was 16.1%; in experiment [13], -1.3%.
